Data published in patent US11287433B2, “Methods for in vitro investigating mitochondrial replication dysfunction in a biological sample, kits and uses thereof, therapeutic methods against progeroid-like syndromes or symptoms and screening method for identifying particular protease inhibitor(s) and/or nitroso-redox stress scavenger …” (INSTITUT PASTEUR, priority 2014, dated 2022).
Peptide text beside a SMILES is read from it. * marks the point of attachment. Cbz = O=C(OCc1ccccc1)*

B1: KSTI: Kunitz soybean trypsin inhibitor, a natural serine protease inhibitor (protein)
chain: DFVLDNEGNPLENGGTYYILSDITAFGGIRAAPTGNERCPLTVVQSRNELDKGIGTIISSPYRIRFIAEGHPLSLKFDSFAVIMLCVGIPTEWSVVEDLPEGPAVKIGENKDAMDGWFRLERVSDDEFNNYKLVFCPQQAEDDKCGDIGISIDHDDGTRRLVVSKNKPLVVQFQKLDKESL

What was measured:
POLG1 levels [1] = test: POLG1 immunofluorescence in patient fibroblasts after treatment with protease inhibitors; type: cell-based, human; settings: 5 hours
Protocol: (§1) Cells plated on slides were fixed with 2% PFA and permeabilized with 0.5% Triton X-100. The slides were incubated in blocking buffer (BSA 5% in PBS) for 1 h then with the primary antibody (POLγ and HTRA3 purchased from SantaCruz Biotechnology, or as available from any other provider) for 1 h at room temperature. A second, fluorescent antibody (goat anti-mouse and goat anti-rabbit Alexa® Fluor 488, Alexa® Fluor 555, conjugated secondary antibodies from Invitrogen or by any other provider), was incubated for 1-2 h at room temperature, and DNA was stained with 10 μg/ml Hoechst.
(§2) Image analysis was carried out using Perkin-Elmer Ultraview RS Nipkow-spinning disk confocal microscope. Three-dimensional reconstruction of all the z-stacks was achieved using the 3D-volume rendering of IMARIS software (Bitplane). A regular fluorescence microscope can also be used, including for fluorescence quantification, although in this last case it will quantify one section of the cell only and not the entire volume; this quantification may be sufficient for comparative studies (normal versus patient cells). Confocal acquisition (even in the absence of spinning disk) in 3D allows quantification of the entire volume, and differences among samples are therefore more robust.
The inventors treated fibroblasts from healthy individuals, from UV^SS and from Cockayne syndrome of type I and II (the last being the more severe), with protease inhibitors MG132 (5 μM) and KSTI (100 μg/ml) for 5 hours and then tested for POLG1 levels.

POLG1 levels [2] = test: POLG1 levels in CSB-silenced HeLa cells after protease inhibitors; type: cell-based, human
[3] = system: reactive oxygen species (ROS); test: ROS levels by DCFHDA (DCF) fluorescence in fibroblasts; type: cell-based, human; settings: control and UVSS fibroblasts; 24 h
Description: The inventors assessed the relative levels of oxidative stress using the fluorescent probe dichlorofluorescein diacetate (DCFHDA), which prevalently detects reactive oxygen species (ROS)^29. They reported that whereas UV^SS cells display moderate (25%) increase of signal compared to controls, all CS cells are characterized by higher levels (1.6 to 2-fold) of oxidative stress (FIG. 8a), in agreement with a previous finding^30.
(§3) The inventors quantified fluorescence intensities on cells as summarized in Table 1 before and after treatment with MnTBAP (purchased from Millipore) of DCF and of DHR123 per cell (FIGS. 9(a) and (b)), as well as fluorescence intensities of HTRA2 (FIG. 9(c)), HTRA3 (FIG. 9(d)), POLG1 (FIG. 9(e)) per cell.
(§4) Manganase(III)tetrakis(4-benzoic acid)porphyrin (MNTBAP) is a synthetic metalloporphyrin which mimics superoxide dismutase and scavenges ROS and peroxynitrite^32.

mtDNA content = test: qPCR of mtDNA content after MnTBAP; type: cell-based, human
[4] = system: adult primary fibroblasts IMR-90 and BJ; test: Cell survival of primary cells in culture at longer incubation times; type: cell-based
Protocol: As KSTI (serine protease inhibitor) and MnTBAP (ROS/RNS scavenger) rescue the CS phenotype by 24 h treatment, the inventors assessed cell survival in culture at longer incubation times with either drug. They used doses of the drugs as those affecting CS cells: 100 μg/ml of KSTI and 100 μM MnTBAP on adult primary fibroblasts IMR-90 and BJ (from ATCC repository). […] Additional experiments are ongoing to test the survival at longer incubation times and lower doses of the drug.

POLG1 = POLG1 fluorescence intensity per cell after MnTBAP; type: cell-based, human; settings: normal fibroblasts
Protocol: as §1
as §2, with “robust. […]” for “robust.”

HTRA2 = HTRA2 fluorescence intensity per cell after MnTBAP; type: cell-based, human
Protocol: as §1
as §2, with “robust. […]” for “robust.”

peroxynitrite = test: Peroxynitrite levels by DHR123 fluorescence in fibroblasts; type: cell-based, human; settings: all control and patient cells; 24 h
Description: High levels of ROS react with nitric oxide (NO), thereby quenching NO and promoting the formation of peroxynitrite (ONOO^−), which is a powerful oxidant and nitration agent^31.
as §3, §4

ATP synthesis = test: ATP tests (glycolysis/OXPHOS fraction and total ATP per cell) after MnTBAP; type: cell-based, human
HTRA3 = HTRA3 fluorescence intensity per cell after MnTBAP; type: cell-based, human
Protocol: as §1, §2, §3

[5] = CS type I and type II fibroblasts 359, 797 and 816, MG132 5 μM or KSTI 100 μg/ml
[6] = CS type I fibroblasts 539 and 548, MG132 5 μM or KSTI 100 μg/ml
[7] = fibroblasts of healthy individuals and of UVSS, MG132 5 μM or KSTI 100 μg/ml

Molecule | POLG1 immunofluorescence level (POLG1 levels [1]; [5]) | POLG1 immunofluorescence level (POLG1 levels [1]; [6]) | POLG1 immunofluorescence level (POLG1 levels [1]; CS type II fibroblasts 177, MG132 5 μM) | POLG1 immunofluorescence level (POLG1 levels [1]; [7]) | POLG1 levels (POLG1 levels [2]) | levels of ROS, measured by DCFHDA [3] | mtDNA content (mtDNA content; control fibroblasts) | mtDNA content (mtDNA content; patient cells) | cell survival (cell number and cell shape) ([4]; 100 μM MnTBAP, continuous treatment by 3 days) | levels of POLG1 (POLG1) | HTRA2 reduction (HTRA2; UVSS and all CS cells, compared with control cells) | levels of serine protease HTRA2 (HTRA2; control cells) | levels of peroxynitrite, measured by DHR123 (peroxynitrite) | glycolytic shift / fraction of ATP produced by mitochondria (ATP synthesis; CS cells, 24 h treatment) | total ATP levels (ATP synthesis; UVSS and CS cells) | levels of HTRA3 (HTRA3; CS cells) | levels of HTRA3 (HTRA3; UVSS cells) | levels of HTRA3 (HTRA3; control cells) | cell survival (cell number and cell shape) ([4]; 100 μg/ml KSTI, continuous treatment by 6 days)
CC(C)C[C@@H](C=O)NC(=O)[C@H](CC(C)C)NC(=O)[C@H](CC(C)C)NC(=O)OCc1ccccc1 [MG132, benzyl N-[(2S)-4-methyl-1-[[(2S)-4-methyl-1-[[(2S)-4-methyl-1-oxopentan-2-yl]amino]-1-oxopentan-2-yl]amino]-1-oxopentan-2-yl]carbamate] (Cbz-Leu-Leu-Leu-aldehyde) | POLG1 levels exceeded those of untreated healthy individuals | Significant modifications in two CS type I fibroblasts (539 and 548) were not observed | increased to levels of healthy individual | increased levels of POLG1 immunofluorescence | restored normal POLG1 levels |  |  |  |  |  |  |  |  |  |  |  |  |  | 
O=C(O)c1ccc(/C2=C3\C=CC(=N3)/C(c3ccc(C(=O)O)cc3)=c3/cc/c4[n]3[Mn]([Cl])[n]3c2ccc3/C(c2ccc(C(=O)O)cc2)=C2/C=CC(=N2)\C=4c2ccc(C(=O)O)cc2)cc1 [MnTBAP, Manganese (III) tetrakis (4-benzoic acid) porphyrin chloride] |  |  |  |  |  | decreased by two thirds | does not change the mtDNA content | becomes close to the value of controls | did not show effect on cell survival | increased levels of POLG1 | dramatically higher | reduce by one half | greatly reduced | attenuated | remain relatively high | restored control levels of HTRA3 | did reduce | increased the levels of HTRA3 | 
B1 | POLG1 levels exceeded those of untreated healthy individuals | Significant modifications in two CS type I fibroblasts (539 and 548) were not observed |  | increased levels of POLG1 immunofluorescence | restored normal POLG1 levels |  |  |  |  |  |  |  |  |  |  |  |  |  | did not show effect on cell survival
